According to the supplement of paper PMC10307832:

Tests used:
Experiment in all cases: relative viability (nuclei count vs DMSO), 5 days (fraction); higher = more cells survive
RU-SKI 43 + Phenformin = compound: CC[C@@H](C)CNCC(=O)N1CCC2=C([C@@H]1COC3=CC=CC(=C3)C)C=CS2 [RU-SKI 43] + N=C(N)NC(=N)NCCc1ccccc1 [Phenformin] (partner 250 µM)
Method in brief: (§1)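 Lung cancer cell lines were seeded in 1536-well plates and dosed by pin tool the next day, with either a single drug or a fixed anchor-drug dose combined with five library-drug doses (not always all listed) spaced in √10 steps. Five days later, one step fixed the cells and stained their nuclei (final 0.05% Triton X-100, 1% formaldehyde, 1 ug/ml Hoechst), and nuclei were counted on 4× images. Relative viability is the nuclei count in treated wells divided by the count in vehicle wells, and each value is the median of duplicate plates.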

RU-SKI 43 + Vorinostat = compound: CC[C@@H](C)CNCC(=O)N1CCC2=C([C@@H]1COC3=CC=CC(=C3)C)C=CS2 [RU-SKI 43] + O=C(CCCCCCC(=O)Nc1ccccc1)NO [Vorinostat] (partner 1 µM)
Method in brief: as §1

Irinotecan + Phenformin = compound: CCc1c2c(nc3ccc(OC(=O)N4CCC(N5CCCCC5)CC4)cc13)-c1cc3c(c(=O)n1C2)COC(=O)[C@]3(O)CC [Irinotecan] + N=C(N)NC(=N)NCCc1ccccc1 [Phenformin] (partner 250 µM)
Method in brief: as §1

MK-8033 + Linsitinib = compound: Cn1cc(-c2cnc3ccc4ccc(CS(=O)(=O)NCc5ccccn5)cc4c(=O)c3c2)cn1 [MK-8033] + C[C@]1(O)C[C@@H](c2nc(-c3ccc4ccc(-c5ccccc5)nc4c3)c3c(N)nccn32)C1 [Linsitinib] (partner 1 µM)
Method in brief: as §1

Which relative viability (RU-SKI 43 + Phenformin; first compound 0.1 µM) does the source give for UMC-11 here?
Its relative viability is 0.349.

What about the relative viability (RU-SKI 43 + Phenformin; first compound 0.3162 µM) of the same cell line?
Its relative viability is 0.366.

And the relative viability (RU-SKI 43 + Phenformin; first compound 1 µM)?
The relative viability was 0.33.

What about the relative viability (RU-SKI 43 + Phenformin; first compound 3.162 µM) of the same cell line?
Its relative viability is 0.32.

What about the relative viability (RU-SKI 43 + Phenformin; first compound 10 µM) of the same cell line?
The relative viability was 0.344.

And the relative viability (RU-SKI 43 + Vorinostat; first compound 0.1 µM)?
Its relative viability is 0.386.

And the relative viability (RU-SKI 43 + Vorinostat; first compound 0.3162 µM)?
The relative viability was 0.328.

And the relative viability (RU-SKI 43 + Vorinostat; first compound 1 µM)?
Its relative viability is 0.473.

And the relative viability (RU-SKI 43 + Vorinostat; first compound 3.162 µM)?
The relative viability was 0.407.

What about the relative viability (RU-SKI 43 + Vorinostat; first compound 10 µM) of the same cell line?
The relative viability was 0.352.

And the relative viability (Irinotecan + Phenformin; first compound 0.6325 µM)?
The relative viability was 0.294.

And the relative viability (Irinotecan + Phenformin; first compound 2 µM)?
Its relative viability is 0.235.

What about the relative viability (Irinotecan + Phenformin; first compound 6.325 µM) of the same cell line?
Its relative viability is 0.196.

And the relative viability (Irinotecan + Phenformin; first compound 20 µM)?
The relative viability was 0.189.

What about the relative viability (MK-8033 + Linsitinib; first compound 0.02 µM) of the same cell line?
The relative viability was 0.973.

What about the relative viability (MK-8033 + Linsitinib; first compound 0.06325 µM) of the same cell line?
The relative viability was 0.739.

And the relative viability (MK-8033 + Linsitinib; first compound 0.2 µM)?
The relative viability was 0.974.

And the relative viability (MK-8033 + Linsitinib; first compound 0.6325 µM)?
The relative viability was 0.969.

And the relative viability (MK-8033 + Linsitinib; first compound 2 µM)?
Its relative viability is 0.979.
